According to US7238701B2, “Substituted tetrahydrobenzothienopyrimidinamine compounds useful for treating hyper-proliferative disorders” (Bayer Pharmaceuticals Corporation, priority 2003, dated 2007):

Tests used:
[1] = system: A431cells (human epidermoid carcinoma); assay: In vitro tumor cell proliferation assay (Cell Titer-Glo luminescent cell viability), A431 cells; type: cell-based; details: A-431, 72 h, 72 hours drug exposure, 10% Fetal Bovine Serum, ATP luminescence readout, read-out: IC50 (50% inhibition of cell proliferation)
Method in brief: (§1)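 ATP luminescence (CellTiter-Glo) measured proliferation after 72 h compound exposure at 37 °C, giving IC50 values. Serial dilutions spanning 64 pM–100 μM in 0.1% DMSO were applied one day after plating 2.5×10^3 cells/well in RPMI plus 10% fetal bovine serum.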

[2] = system: BT474 (human breast carcinoma); assay: In vitro tumor cell proliferation assay (Cell Titer-Glo luminescent cell viability), BT474 cells; type: cell-based; details: BT-474, 72 hours drug exposure, 10% Fetal Bovine Serum, ATP luminescence readout, read-out: IC50 (50% inhibition of cell proliferation)
Method in brief: as §1

| SMILES | IC50 [1] [µM] | IC50 [2] [µM] |
| --- | --- | --- |
| COC[C@H]1CCCN1CCC1CCc2c(sc3ncnc(Nc4ccc(OCc5cccc(F)c5)c(Cl)c4)c23)C1 (stereo partly drawn) [Example 198, N-{3-chloro-4-[(3-fluorobenzyl)oxy]phenyl}-7-{2-[(2R)-2-(methoxymethyl)pyrrolidin-1-yl]ethyl}-5,6,7,8-tetrahydro[1]benzothieno[2,3-d]pyrimidin-4-amine] | < 5 | < 5 |
| Fc1cccc(COc2ccc(Nc3ncnc4sc5c(c34)CCC(CCN3CCSCC3)C5)cc2Cl)c1 (stereo not drawn) [Example 199, N-{3-chloro-4-[(3-fluorobenzyl)oxy]phenyl}-7-(2-thiomorpholin-4-ylethyl)-5,6,7,8-tetrahydro[1]benzothieno[2,3-d]pyrimidin-4-amine] | < 50 | < 5 |
| CS(=O)(=O)CCNCCC1CCc2c(sc3ncnc(Nc4ccc(OCc5cccc(F)c5)c(Cl)c4)c23)C1 (stereo not drawn) [Example 200, N-{3-chloro-4-[(3-fluorobenzyl)oxy]phenyl}-7-(2-{[2-(methylsulfonyl)ethyl]amino}ethyl)-5,6,7,8-tetrahydro[1]benzothieno[2,3-d]pyrimidin-4-amine] | < 5 | < 5 |
| C=CC1(O)CCc2c(sc3ncnc(Nc4ccc(F)c(Cl)c4)c23)C1 (stereo not drawn) [Example 201, 4-[(3-chloro-4-fluorophenyl)amino]-7-vinyl-5,6,7,8-tetrahydro[1]benzothieno[2,3-d]pyrimidin-7-ol] | < 50 | < 50 |
| CS(=O)(=O)OCCC1CCc2c(sc3ncnc(Nc4ccc5c(cnn5Cc5ccccc5)c4)c23)C1 (stereo not drawn) [Example 202, 2-{4-[(1-benzyl-1H-indazol-5-yl)amino]-5,6,7,8-tetrahydro[1]benzothieno[2,3-d]pyrimidin-7-yl}ethyl methanesulfonate] | < 5 | < 5 |
| OCCC1CCc2c(sc3ncnc(Nc4ccc5c(cnn5Cc5ccccc5)c4)c23)C1 (stereo not drawn) [Example 203, 2-[4-(1-Benzyl-1H-indazol-5-ylamino)-5,6,7,8-tetrahydro-benzo[4,5]thieno[2,3-d]pyrimidin-7-yl]-ethanol] | < 5 | < 5 |
| CCOC(=O)CC1CCc2c(sc3ncnc(Nc4ccc5c(cnn5Cc5ccccc5)c4)c23)C1 (stereo not drawn) [Example 204, ethyl {4-[(1-benzyl-1H-indazol-5-yl)amino]-5,6,7,8-tetrahydro[1]benzothieno[2,3-d]pyrimidin-7-yl}acetate] | < 50 | < 5 |
| COCCNCCC1CCc2c(sc3ncnc(Nc4ccc5c(cnn5Cc5ccccc5)c4)c23)C1 (stereo not drawn) [Example 205, N-(1-benzyl-1H-indazol-5-yl)-7-{2-[(2-methoxyethyl)amino]ethyl}-5,6,7,8-tetrahydro[1]benzothieno[2,3-d]pyrimidin-4-amine] | < 5 | < 5 |
| OCCNCCC1CCc2c(sc3ncnc(Nc4ccc5c(cnn5Cc5ccccc5)c4)c23)C1 (stereo not drawn) [Example 206, 2-[(2-{4-[(1-benzyl-1H-indazol-5-yl)amino]-5,6,7,8-tetrahydro[1]benzothieno[2,3-d]pyrimidin-7-yl}ethyl)amino]ethanol] | < 5 | < 5 |
| CN(C)C1CCN(CCC2CCc3c(sc4ncnc(Nc5ccc6c(cnn6Cc6ccccc6)c5)c34)C2)C1 (stereo not drawn) [Example 207, N-(1-benzyl-1H-indazol-5-yl)-7-{2-[3-(dimethylamino)pyrrolidin-1-yl]ethyl}-5,6,7,8-tetrahydro[1]benzothieno[2,3-d]pyrimidin-4-amine] | < 5 | < 5 |
| c1ccc(Cn2ncc3cc(Nc4ncnc5sc6c(c45)CCC(CCN4CCCC4)C6)ccc32)cc1 (stereo not drawn) [Example 208, N-(1-benzyl-1H-indazol-5-yl)-7-(2-pyrrolidin-1-ylethyl)-5,6,7,8-tetrahydro[1]benzothieno[2,3-d]pyrimidin-4-amine] | < 5 | < 5 |
| c1ccc(Cn2ncc3cc(Nc4ncnc5sc6c(c45)CCC(CCNCCN4CCOCC4)C6)ccc32)cc1 (stereo not drawn) [Example 209, N-(1-benzyl-1H-indazol-5-yl)-7-{2-[(2-morpholin-4-ylethyl)amino]ethyl}-5,6,7,8-tetrahydro[1]benzothieno[2,3-d]pyrimidin-4-amine] | < 5 | < 5 |
